Experimental data as given in ChEMBL document CHEMBL1152339, “Use of the in vivo hollow fiber assay in natural products anticancer drug discovery” (J Nat Prod, 2009).

What was measured:
Format in all cases: functional
[1] = system: KB; assay: Growth inhibition of human KB cells xenografted in NCr nu/nu mouse at 25 to 100 mg/kg, ip once daily administered from day 3 to 6 after implantation measured on day 7 by MTT-based hollow-fiber test; conditions: route intraperitoneal
[2] = system: KB; assay: Growth inhibition of human KB cells xenografted in NCr nu/nu mouse at 25 to 100 mg/kg, sc once daily administered from day 3 to 6 after implantation measured on day 7 by MTT-based hollow-fiber test; conditions: route subcutaneous
[3] = system: LNCaP; assay: Growth inhibition of human LNCAP cells xenografted in NCr nu/nu mouse at 25 to 100 mg/kg, ip once daily administered from day 3 to 6 after implantation measured on day 7 by MTT-based hollow-fiber test; conditions: route intraperitoneal
[4] = system: LNCaP; assay: Growth inhibition of human LNCAP cells xenografted in NCr nu/nu mouse at 25 to 100 mg/kg, sc once daily administered from day 3 to 6 after implantation measured on day 7 by MTT-based hollow-fiber test; conditions: route subcutaneous
[5] = system: SW626; assay: Growth inhibition of human SW626 cells xenografted in NCr nu/nu mouse at 25 to 100 mg/kg, ip once daily administered from day 3 to 6 after implantation measured on day 7 by MTT-based hollow-fiber test; conditions: dose mg/kg 3-6; route intraperitoneal
[6] = system: SW626; assay: Growth inhibition of human SW626 cells xenografted in NCr nu/nu mouse at 25 to 100 mg/kg, sc once daily administered from day 3 to 6 after implantation measured on day 7 by MTT-based hollow-fiber test; conditions: dose mg/kg 3-6; route subcutaneous
[7] = system: SK-MEL-2; assay: Growth inhibition of human SK-MEL-2 cells xenografted in NCr nu/nu mouse at 25 to 100 mg/kg, ip once daily administered from day 3 to 6 after implantation measured on day 7 by MTT-based hollow-fiber test; conditions: dose mg/kg 3-6; route intraperitoneal
[8] = system: SK-MEL-2; assay: Growth inhibition of human SK-MEL-2 cells xenografted in NCr nu/nu mouse at 25 to 100 mg/kg, sc once daily administered from day 3 to 6 after implantation measured on day 7 by MTT-based hollow-fiber test; conditions: dose mg/kg 3-6; route subcutaneous
[9] = system: MCF7; assay: Growth inhibition of human MCF7 cells xenografted in NCr nu/nu mouse at 25 to 100 mg/kg, ip once daily administered from day 3 to 6 after implantation measured on day 7 by MTT-based hollow-fiber test; conditions: dose mg/kg 3-6; route intraperitoneal
[10] = system: MCF7; assay: Growth inhibition of human MCF7 cells xenografted in NCr nu/nu mouse at 25 to 100 mg/kg, sc once daily administered from day 3 to 6 after implantation measured on day 7 by MTT-based hollow-fiber test; conditions: dose mg/kg 3-6; route subcutaneous
[11] = system: SW626; assay: Growth inhibition of human SW626 cells xenografted in ip dosed NCr nu/nu mouse administered once daily from day 3 to 6 after implantation measured on day 7 by MTT-based hollow-fiber test
[12] = system: MCF7; assay: Growth inhibition of human MCF7 cells xenografted in ip dosed NCr nu/nu mouse administered once daily from day 3 to 6 after implantation measured on day 7 by MTT-based hollow-fiber test
[13] = system: LNCaP; assay: Growth inhibition of human LNCAP cells xenografted in ip dosed NCr nu/nu mouse administered once daily from day 3 to 6 after implantation measured on day 7 by MTT-based hollow-fiber test
[14] = system: SK-MEL-2; assay: Growth inhibition of human SK-MEL-2 cells xenografted in ip dosed NCr nu/nu mouse administered once daily from day 3 to 6 after implantation measured on day 7 by MTT-based hollow-fiber test
[15] = system: LNCaP; assay: Growth inhibition of human LNCAP cells xenografted in NCr nu/nu mouse at 5 to 20 mg/kg, ip once daily administered from day 3 to 6 after implantation measured on day 7 by MTT-based hollow-fiber test; conditions: route intraperitoneal
[16] = system: LNCaP; assay: Growth inhibition of human LNCAP cells xenografted in NCr nu/nu mouse at 5 to 20 mg/kg, sc once daily administered from day 3 to 6 after implantation measured on day 7 by MTT-based hollow-fiber test; conditions: route subcutaneous
[17] = system: KB; assay: Growth inhibition of human KB cells xenografted in NCr nu/nu mouse at 0.195 to 1.56 mg/kg, ip once daily administered from day 3 to 6 after implantation measured on day 7 by MTT-based hollow-fiber test; conditions: route intraperitoneal
[18] = system: KB; assay: Growth inhibition of human KB cells xenografted in NCr nu/nu mouse at 0.195 to 1.56 mg/kg, sc once daily administered from day 3 to 6 after implantation measured on day 7 by MTT-based hollow-fiber test; conditions: route subcutaneous
[19] = system: LNCaP; assay: Growth inhibition of human LNCAP cells xenografted in NCr nu/nu mouse at 0.195 to 1.56 mg/kg, ip once daily administered from day 3 to 6 after implantation measured on day 7 by MTT-based hollow-fiber test; conditions: route intraperitoneal
[20] = system: LNCaP; assay: Growth inhibition of human LNCAP cells xenografted in NCr nu/nu mouse at 0.195 to 1.56 mg/kg, sc once daily administered from day 3 to 6 after implantation measured on day 7 by MTT-based hollow-fiber test; conditions: route subcutaneous
[21] = system: Col2; assay: Growth inhibition of human Col2 cells xenografted in NCr nu/nu mouse at 0.195 to 1.56 mg/kg, ip once daily administered from day 3 to 6 after implantation measured on day 7 by MTT-based hollow-fiber test; conditions: route intraperitoneal
[22] = system: Col2; assay: Growth inhibition of human Col2 cells xenografted in NCr nu/nu mouse at 0.195 to 1.56 mg/kg, sc once daily administered from day 3 to 6 after implantation measured on day 7 by MTT-based hollow-fiber test; conditions: route subcutaneous
[23] = system: Col2; assay: Growth inhibition of human Col2 cells xenografted in ip dosed NCr nu/nu mouse administered once daily from day 3 to 6 after implantation measured on day 7 by MTT-based hollow-fiber test
[24] = system: Lu1; assay: Growth inhibition of human Lu1 cells xenografted in NCr nu/nu mouse at 6.2 to 25 mg/kg, ip once daily administered from day 3 to 6 after implantation measured on day 7 by MTT-based hollow-fiber test; conditions: dose mg/kg 3-6; route intraperitoneal
[25] = system: Lu1; assay: Growth inhibition of human Lu1 cells xenografted in NCr nu/nu mouse at 6.2 to 25 mg/kg, sc once daily administered from day 3 to 6 after implantation measured on day 7 by MTT-based hollow-fiber test; conditions: dose mg/kg 3-6; route subcutaneous
[26] = system: LNCaP; assay: Growth inhibition of human LNCAP cells xenografted in NCr nu/nu mouse at 6.2 to 25 mg/kg, ip once daily administered from day 3 to 6 after implantation measured on day 7 by MTT-based hollow-fiber test; conditions: route intraperitoneal
[27] = system: LNCaP; assay: Growth inhibition of human LNCAP cells xenografted in NCr nu/nu mouse at 6.2 to 25 mg/kg, sc once daily administered from day 3 to 6 after implantation measured on day 7 by MTT-based hollow-fiber test; conditions: route subcutaneous
[28] = system: KB; assay: Growth inhibition of human KB cells xenografted in NCr nu/nu mouse at 6.2 to 25 mg/kg, ip once daily administered from day 3 to 6 after implantation measured on day 7 by MTT-based hollow-fiber test; conditions: route intraperitoneal
[29] = system: KB; assay: Growth inhibition of human KB cells xenografted in NCr nu/nu mouse at 6.2 to 25 mg/kg, sc once daily administered from day 3 to 6 after implantation measured on day 7 by MTT-based hollow-fiber test; conditions: route subcutaneous
[30] = system: Lu1; assay: Growth inhibition of human Lu1 cells xenografted in ip dosed NCr nu/nu mouse administered once daily from day 3 to 6 after implantation measured on day 7 by MTT-based hollow-fiber test

## CO[C@@]12CC[C@@]3(C)[C@@](CC[C@@H]4[C@@]5(C)CCC[C@]43OC5=O)(C1)C(=O)C2=O
[1]
  growth inhibition (GI): 21%
[2]
  growth inhibition (GI): 6%
[3]
  growth inhibition (GI): 50%
[4]
  growth inhibition (GI): 0%
[5]
  growth inhibition (GI): 0%
[6]
  growth inhibition (GI): 16%
[7]
  growth inhibition (GI): 15%
[8]
  growth inhibition (GI): 11%
[9]
  growth inhibition (GI): 34%
[10]
  growth inhibition (GI): 0%
[11]
  ED50: 0.58 µM
[12]
  ED50: 0.87 µM
[13]
  ED50: 1.2 µM
[14]
  ED50: 1.2 µM

## O=C1OC[C@@H]2Cc3cc4c(cc3[C@@H](c3ccc5c(c3)OCO5)[C@H]12)OCO4 [PICROPOLYGAMAIN]
[15]
  growth inhibition (GI): 21%
[16]
  growth inhibition (GI): 3%
[13]
  ED50: 3.1 µM

## CC(=O)O[C@@H]1O[C@@H]([C@H]2c3cccc(O)c3C(=O)c3c(O)cc(C)cc32)[C@H](O)[C@@H](O)[C@H]1O [ALVARADOIN E]
[17]
  growth inhibition (GI): 40%
[18]
  growth inhibition (GI): 5%
[19]
  growth inhibition (GI): 60%
[20]
  growth inhibition (GI): 10%
[21]
  growth inhibition (GI): 31%
[22]
  growth inhibition (GI): 6%
[13]
  ED50: 0.14 µM
[23]
  ED50: 0.23 µM

## CC(=O)O[C@H]1O[C@H]([C@@H]2c3cccc(O)c3C(=O)c3c(O)cc(C)cc32)[C@H](O)[C@@H](O)[C@H]1O [ALVARADOIN F]
[17]
  growth inhibition (GI): 32%
[18]
  growth inhibition (GI): 2%
[19]
  growth inhibition (GI): 59%
[20]
  growth inhibition (GI): 3%
[21]
  growth inhibition (GI): 21%
[22]
  growth inhibition (GI): 1%
[13]
  ED50: 0.12 µM
[23]
  ED50: 0.23 µM

## C[C@@H]1CC[C@@]2(OC1)O[C@H]1C[C@H]3[C@@H]4CC=C5C[C@@H](O[C@@H]6O[C@H](CO)[C@@H](O[C@@H]7O[C@@H](C)[C@H](O)[C@@H](O)[C@H]7O)[C@H](O)[C@H]6O[C@@H]6O[C@@H](C)[C@H](O)[C@@H](O)[C@H]6O)CC[C@]5(C)[C@H]4CC[C@]3(C)[C@H]1[C@@H]2C [DIOSCIN]
[24]
  growth inhibition (GI): 25%
[25]
  growth inhibition (GI): 0%
[26]
  growth inhibition (GI): 37%
[27]
  growth inhibition (GI): 36%
[28]
  growth inhibition (GI): 79%
[29]
  growth inhibition (GI): 4%
[13]
  ED50: 1.7 µM
[30]
  ED50: 1.2 µM
